Experimental data as given in patent US20110112100A1, “Hepatitis C Virus Inhibitors” (priority 2009, published 2011).
Where a name gives a salt, the structure may show the parent alone. Read-outs that look alike come from different tables or passages of the source.

How the values were obtained:
[1] = system: 1a-H77 replicon cells; assay: HCV 1a replicon inhibitory activity (Renilla luciferase); assay type: cell-based, hepatitis C virus; settings: Hepatitis C virus, read-out: IC50 value (95% Confidence Intervals) pM Replicon 1A assay
Method in brief: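 Replicon cells in DMEM + 10% FCS incubated 48 hours at 37° C., 5% CO2 with 1-in-3 serial dilutions of compound prepared in DMSO. Replication read as Renilla luciferase luminescence after lysis. EC50 taken from log concentration-response curves.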

[2] = Compound induced cytotoxicity in HCV replicon cell lines (WST-1 reagent); assay type: cell-based; settings: human, WST-1, 48 hours, in 1 experiment
Experimental: Test compounds were solubilised to 4 mM in 100% DMSO. Dilutions were made to the desired starting concentration in 100% DMSO and then 1 in 3 dilutions made, again in 100% DMSO. 0.5 μl of each sample was added to 384-well assay plates. White Lumitrac (Greiner) plates were used for the 1a and 1b replicon assays and black, clear bottomed (Greiner) plates were used for the WST-1 cytotoxity assay.
1b (con1) replicon cells were resuspended to a concentration of 1.4×10^5 cells/ml by addition of pre-warmed medium (DMEM+10% FCS). 50 μl of this suspension was added to each well of a 384-well assay plate (Black, clear bottomed, Greiner) already containing 0.5 μl of test compound.
All plates were covered with gas permeable seals and incubated at 37° C., 5% CO2 for 48 hours. After 48 hours, 5 μl WST-1 reagent (Roche, 11 644 807 001) was added to each well and the plate returned to the incubator for 3 hours. After this incubation period absorbance was read at 450 nm on an EnVision (Perkin Elmer) plate reader. The half maximal cytotoxic concentration (CC50) values were calculated for each compound by constructing log concentration-response curves.
All of the exemplified compounds have been screened in a cell proliferation assay (WST-1). A majority have […] in at least 2 independent experiments, the exceptions being the compounds of examples 1, 10, 12, 23, 25, 37, 47, 48, 49, 52, 56, 57, 58, 60, 67, 68, 69, 70, 71, 72, 73, 74, 79, 81 and 84 which have CC50 values>2 μM in 1 experiment, and example 20 where the CC50 is reported as >10 nM (in this instance the top concentration tested in the assay was 10 nM).

[3] = system: 1b (con1) replicon cells; assay: HCV 1b replicon inhibitory activity (luciferase, Britelite Plus); assay type: cell-based, hepatitis C virus; settings: Hepatitis C virus, read-out: IC50 value (95% Confidence Intervals) pM Replicon 1B assay
Method in brief: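 1b (con1) luciferase replicon cells in DMEM + 10% FCS were exposed to 1-in-3 DMSO compound dilutions for 48 h at 37° C, 5% CO2. Luminescence was read 1-15 min after Britelite Plus addition; EC50 came from log concentration-response curves.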

[4] = geometric mean, 95% confidence intervals in parentheses, 48 hours, medium with 10% FCS

SMILES: CC[C@H](NC(=O)OC)C(=O)N1CCC[C@H]1c1ncc(-c2ccc3nc(-c4ccc(-c5c[nH]c([C@@H]6CCCN6C(=O)[C@@H](NC(=O)OC)C(C)C)n5)cc4)cnc3c2)[nH]1 [Example 52, Methyl {(2S)-1-[(2S)-2-{4-[4-(6-{2-[(2S)-1-{(2S)-2-[(methoxycarbonyl)amino]butanoyl}pyrrolidin-2-yl]-1H-imidazol-5-yl}quinoxalin-2-yl)phenyl]-1H-imidazol-2-yl}pyrrolidin-1-yl]-3-methyl-1-oxobutan-2-yl}carbamate trifluoroacetic acid salt]
- IC50 ([1]; 48 h): 22.1 pM
- CC50 at 48 h ([2]; 1b (con1) HCV replicon cells): > 2000 nM
- IC50 ([3]; 48 h): 16.6 pM

SMILES: COC(=O)N[C@H](C(=O)N1CCC[C@H]1c1ncc(-c2ccc3nc(-c4ccc(-c5c[nH]c([C@@H]6CCCN6C(=O)[C@@H](NC(=O)OC)C(C)C)n5)cc4)cnc3c2)[nH]1)c1ccccc1 [Example 56, Methyl {(2S)-1-[(2S)-2-{4-[4-(6-(2-[(2S)-1-{(2S)-2-[(methoxycarbonyl)amino]-2-phenylacetyl}pyrrolidin-2-yl]-1H-imidazol-5-yl}quinoxalin-2-yl)phenyl]-1H-imidazol-2-yl}pyrrolidin-1-yl]-3-methyl-1-oxobutan-2-yl}carbamate trifluoroacetic acid salt]
- IC50 ([1]; 48 h): 26.3 pM
- CC50 at 48 h ([2]; 1b (con1) HCV replicon cells): > 2000 nM
- IC50 ([3]; 48 h): 10.2 pM

SMILES: CC[C@H](C)[C@H](NC(=O)OC)C(=O)N1CCC[C@H]1c1ncc(-c2ccc3nc(-c4ccc(-c5c[nH]c([C@@H]6CCCN6C(=O)[C@@H](NC(=O)OC)C(C)C)n5)cc4)cnc3c2)[nH]1 [Example 58, Methyl {(2S)-1-[(2S)-2-{4-[4-(6-{2-[(2S)-1-{(2S,3S)-2-[(methoxycarbonyl)amino]-3-methylpentanoyl}pyrrolidin-2-yl]-1H-imidazol-5-yl}quinoxalin-2-yl)phenyl]-1H-imidazol-2-yl}pyrrolidin-1-yl]-3-methyl-1-oxobutan-2-yl}carbamate trifluoroacetic acid salt]
- IC50 ([1]; 48 h): 6.71 pM
- CC50 at 48 h ([2]; 1b (con1) HCV replicon cells): > 2000 nM
- IC50 ([3]; 48 h): 5.07 pM

SMILES: COC(=O)N[C@H](C(=O)N1CCC[C@H]1c1nc(-c2ccc(-c3cnc4cc(-c5cnc([C@@H]6CCCN6C(=O)[C@@H](NC(=O)OC)[C@@H](C)O)[nH]5)ccc4n3)cc2)c[nH]1)C(C)C [Example 60, Methyl {(2S)-1-[(2S)-2-{4-[4-(6-{2-[(2S)-1-{(2S,3R)-3-hydroxy-2-[(methoxycarbonyl)amino]butanoyl}pyrrolidin-2-yl]-1H-imidazol-5-yl}quinoxalin-2-yl)phenyl]-1H-imidazol-2-yl}pyrrolidin-1-yl]-3-methyl-1-oxobutan-2-yl}carbamate trifluoroacetic acid salt]
- IC50 ([1]; 48 h): 22.3 pM
- CC50 at 48 h [2]: > 2000 nM
- IC50 ([3]; 48 h): 23.7 pM

SMILES: COC(=O)N[C@@H](CCS(C)(=O)=O)C(=O)N1CCC[C@H]1c1ncc(-c2ccc3nc(-c4ccc(-c5c[nH]c([C@@H]6CCCN6C(=O)[C@@H](NC(=O)OC)C(C)C)n5)cc4)cnc3c2)[nH]1 [Example 67, methyl [(2S)-1-[(2S)-2-{5-[2-(4-{2-[(2S)-1-{(2S)-2-[(methoxycarbonyl)amino]-3-methylbutanoyl}pyrrolidin-2-yl]-1H-imidazol-4-yl}phenyl)quinoxalin-6-yl]-1H-imidazol-2-yl}pyrrolidin-1-yl]-4-(methylsulfonyl)-1-oxobutan-2-yl]carbamate trifluoroacetic acid salt]
- IC50 ([1]; 48 h): 27.5 pM
- CC50 at 48 h ([2]; 1b (con1) HCV replicon cells): > 2000 nM
- IC50 ([3]; 48 h): 74.8 pM

SMILES: COC[C@H](NC(=O)OC)C(=O)N1CCC[C@H]1c1ncc(-c2ccc3nc(-c4ccc(-c5c[nH]c([C@@H]6CCCN6C(=O)[C@@H](NC(=O)OC)C(C)C)n5)cc4)cnc3c2)[nH]1 [Example 69, Methyl {(2S)-1-[(2S)-2-{4-[4-(6-{2-[(2S)-1-{(2S)-3-methoxy-2-[(methoxycarbonyl)amino]propanoyl}pyrrolidin-2-yl]-1H-imidazol-5-yl}quinoxalin-2-yl)phenyl]-1H-imidazol-2-yl}pyrrolidin-1-yl]-3-methyl-1-oxobutan-2-yl}carbamate trifluoroacetic acid salt]
- IC50 ([1]; 48 h): 22.3 pM
- CC50 at 48 h ([2]; 1b (con1) HCV replicon cells): > 2000 nM
- IC50 ([3]; 48 h): 19.6 pM

SMILES: COC(=O)N[C@H](C(=O)N1CCC[C@H]1c1nc(-c2ccc(-c3cnc4cc(-c5cnc([C@@H]6CCCN6C(=O)[C@@H](NC(=O)OC)C(C)(C)C)[nH]5)ccc4n3)cc2)c[nH]1)C(C)C [Example 70, Methyl {(2S)-1-[(2S)-2-{4-[4-(6-{2-[(2S)-1-{(2S)-2-[(methoxycarbonyl)amino]-3,3-dimethylbutanoyl}pyrrolidin-2-yl]-1H-imidazol-5-yl}quinoxalin-2-yl)phenyl]-1H-imidazol-2-yl}pyrrolidin-1-yl]-3-methyl-1-oxobutan-2-yl}carbamate trifluoroacetic acid salt]
- IC50 ([1]; 48 h): 9.13 pM
- CC50 at 48 h ([2]; 1b (con1) HCV replicon cells): > 2000 nM
- IC50 ([3]; 48 h): 5.17 pM

SMILES: COC(=O)NC(C(=O)N1CCC[C@H]1c1ncc(-c2ccc3nc(-c4ccc(-c5c[nH]c([C@@H]6CCCN6C(=O)[C@@H](NC(=O)OC)C(C)C)n5)cc4)cnc3c2)[nH]1)C1CCOCC1 (stereo partly drawn) [Example 71, Methyl {(2S)-1-[(2S)-2-{4-[4-(6-{2-[(2S)-1-{[(methoxycarbonyl)amino](tetrahydro-2H-pyran-4-yl)acetyl}pyrrolidin-2-yl]-1H-imidazol-5-yl}quinoxalin-2-yl)phenyl]-1H-imidazol-2-yl}pyrrolidin-1-yl]-3-methyl-1-oxobutan-2-yl}carbamate]
- IC50 [1, 4]: 30.7 pM
- CC50 at 48 h ([2]; 1b (con1) HCV replicon cells): > 2000 nM
- IC50 [3, 4]: 23.7 pM

SMILES: COC(=O)N[C@H](C(=O)N1CCC[C@H]1c1nc(-c2ccc(-c3cnc4cc(-c5cnc([C@@H]6CCCN6C(=O)[C@@H](CCc6ccccc6)NC(=O)OC)[nH]5)ccc4n3)cc2)c[nH]1)C(C)C [Example 72, Methyl {(2R)-1-[(2S)-2-{5-[2-(4-{2-[(2S)-1-{(2S)-2-[(methoxycarbonyl)amino]-3-methylbutanoyl}pyrrolidin-2-yl]-1H-imidazol-4-yl}phenyl)quinoxalin-6-yl]-1H-imidazol-2-yl}pyrrolidin-1-yl]-1-oxo-4-phenylbutan-2-yl}carbamate trifluoroacetic acid salt]
- IC50 ([1]; 48 h): 53.6 pM
- CC50 at 48 h ([2]; 1b (con1) HCV replicon cells): > 2000 nM
- IC50 ([3]; 48 h): 7.81 pM

SMILES: COC(=O)N[C@H](C(=O)N1CCC[C@H]1c1nc(-c2ccc(-c3cnc4cc(-c5cnc([C@@H]6CCCN6C(=O)[C@H](NC(=O)OC)C(C)(C)C)[nH]5)ccc4n3)cc2)c[nH]1)C(C)C [Example 73, Methyl {(2S)-1-[(2S)-2-{4-[4-(6-{2-[(2S)-1-{(2R)-2-[(methoxycarbonyl)amino]-3,3-dimethylbutanoyl}pyrrolidin-2-yl]-1H-imidazol-5-yl}quinoxalin-2-yl)phenyl]-1H-imidazol-2-yl}pyrrolidin-1-yl]-3-methyl-1-oxobutan-2-yl}carbamate trifluoroacetic acid salt]
- IC50 ([1]; 48 h): 13.3 pM
- CC50 at 48 h ([2]; 1b (con1) HCV replicon cells): > 2000 nM
- IC50 ([3]; 48 h): 8.11 pM

SMILES: COC(=O)N[C@H](C(=O)N1CCC[C@H]1c1nc(-c2ccc(-c3cnc4cc(-c5cnc([C@@H]6CCCN6C(=O)[C@@H](NC(=O)OC)[C@@H](C)OC(C)(C)C)[nH]5)ccc4n3)cc2)c[nH]1)C(C)C [Example 74, Methyl {(2S)-1-[(2S)-2-{4-[4-(6-{2-[(2S)-1-{(2S,3R)-3-tert-butoxy-2-[(methoxycarbonyl)amino]butanoyl}pyrrolidin-2-yl]-1H-imidazol-5-yl}quinoxalin-2-yl)phenyl]-1H-imidazol-2-yl}pyrrolidin-1-yl]-3-methyl-1-oxobutan-2-yl)carbamate]
- IC50 [1, 4]: 43.7 pM
- CC50 at 48 h ([2]; 1b (con1) HCV replicon cells): > 2000 nM
- IC50 [3, 4]: 14.2 pM
